# From publication PMC5735376, “Dual Level Statistical Investigation of Equilibrium Solubility in Simulated Fasted and Fed Intestinal Fluid” (Molecular Pharmaceutics, 2017)
# Where two headings read alike, the source gives them in different places.
# Experiments:
# [1] = Statistical comparison of equilibrium solubility data sets (Mann-Whitney test / two-sample t-test); format: physicochemical; conditions: for statistical comparison of fasted against fed equilibrium solubility: current dual level DoE, where significant, fasted solubility lower than fed; for statistical comparison of dual level fasted with published fasted equilibrium solubility: current fasted arm vs published fasted DoE
# Text: The Kolmogorov normality test was used in Minitab to assess the normality distribution of each data set. A Mann–Whitney test was used to evaluate the median between two data sets (not normally distributed) and the two-sample t-test was used to evaluate the mean of two data sets (normally distributed).
# [2] = Equilibrium solubility in simulated intestinal fluid, dual level DoE, fed arm; format: physicochemical; conditions: fed, current study (Figure 3)
# Text: (§1) For each media parameter (bile salt, lecithin, sodium oleate, monoglyceride, cholesterol, pH and BS: PL ratio) lower and upper limit concentration values for fasted and fed states were defined, Table 1. Using Minitab 17.2.1 and a custom experimental design, a 1/16 of the full factorial DoE with the seven factors and two levels (lower and upper limits) was constructed (8 experiments around the upper and lower levels plus two center points) separately for the fasted and the fed states. These two tables were then applied as an input for a factorial custom design of experiment which combined the fasted and fed using all 20 data points to provide an overall analysis. The study therefore consists of three arms, two smaller (10 data point) fasted and fed arms, which are then merged into a larger (20 data point) combined arm.
# (§2) When designing and analyzing the DoE, only a factor’s main effects and 2 way interactions have been considered and 3 way interactions or more were not included. For each DoE the magnitude for each factor’s effect on equilibrium solubility was determined by the standardized effect value for all of the individual factors and the significant 2-way interactions. This value was used to articulate whether these factors are increasing or decreasing drug solubility.
# (§3) The solution was prepared by the addition of an excess amount (above the estimated solubility) of solid for each compound investigated to a centrifuge tube (15 mL Corning Centristar cap, polypropylene RNase/DNase free, nonpyrogenic) followed by the addition of each component of the simulated intestinal fluid media according to the run order generated by the DoE. After all of the media components were added, pH was adjusted to 5, 6, or 7 according to the run order using 0.1 M HCl or 0.1 M KOH and tubes were capped and placed on an orbital shaker (OS 5 basic Yellowline, IKA, Germany) for 1 h after which the pH was readjusted if required. The 20 different tubes were then shaken in a tube rotator for 24 h at 40 rpm at 37 °C to simulate intestinal fluid conditions. After 24 h, a 1 mL amount was taken from each of the 20 tubes and transferred to a 1.5 mL Eppendorf tube then centrifuged at 15 000 rpm for 5 min. Following centrifugation 0.5 mL of the supernatant solution was transferred to an HPLC vial to analyze drug solubility using HPLC (Table 4).
# [3] = cited from earlier work
# [4] = parameters: method as in ref 13, Figure 2; conditions: fasted, published; Figure 2; cited from earlier work
# [5] = Equilibrium solubility in simulated intestinal fluid, dual level DoE, fasted arm; format: physicochemical; conditions: for statistical significance of DoE factor BS:PL on equilibrium solubility / statistical significance of DoE factor bile salt on equilibrium solubility / statistical significance of DoE factor cholesterol on equilibrium solubility / statistical significance of DoE factor lecithin on equilibrium solubility / statistical significance of DoE factor monoglyceride on equilibrium solubility / statistical significance of DoE factor pH on equilibrium solubility / statistical significance of DoE factor sodium oleate on equilibrium solubility: fasted, current study (Figure 3)
# Text: as §1, §2, §3
# [6] = parameters: method as in ref 14, Figure 2; conditions: fed, published; Figure 2; cited from earlier work
# [7] = Equilibrium solubility in simulated intestinal fluid, dual level DoE, combined fasted and fed arm; format: physicochemical; conditions: for significant DoE factors influencing solubility: combined arm (seven possible factors per drug), significance ±2; for significant two way factor interactions on solubility: eight two way interactions, Figure 4
# Text: as §1, §2, §3
SMILES,statistical comparison of fasted against fed equilibrium solubility [1],statistical significance of DoE factor BS:PL on equilibrium solubility [2],statistical significance of DoE factor bile salt on equilibrium solubility [2],statistical significance of DoE factor cholesterol on equilibrium solubility [2],statistical significance of DoE factor lecithin on equilibrium solubility [2],statistical significance of DoE factor monoglyceride on equilibrium solubility [2],statistical significance of DoE factor pH on equilibrium solubility [2],statistical significance of DoE factor sodium oleate on equilibrium solubility [2],statistical significance of DoE factor bile salt on equilibrium solubility [4],statistical significance of DoE factor lecithin on equilibrium solubility [4],statistical significance of DoE factor pH on equilibrium solubility [4],statistical significance of DoE factor sodium oleate on equilibrium solubility [4],statistical significance of DoE factor BS:PL on equilibrium solubility [5],statistical significance of DoE factor bile salt on equilibrium solubility [5],statistical significance of DoE factor cholesterol on equilibrium solubility [5],statistical significance of DoE factor lecithin on equilibrium solubility [5],statistical significance of DoE factor monoglyceride on equilibrium solubility [5],statistical significance of DoE factor pH on equilibrium solubility [5],statistical significance of DoE factor sodium oleate on equilibrium solubility [5],statistical significance of DoE factor bile salt on equilibrium solubility [6],also measured
O=C1NC(=O)C(c2ccccc2)(c2ccccc2)N1 [phenytoin],no statistically significant difference,NS ^e,NS ^e ^g,NS ^e,NS ^e,NS ^e ^g,NS ^e ^g,NS ^e ^g,S ^d ^g,S ^d ^g,S ^d,S ^d,S ^d,NS ^e ^g,S ^d,NS ^e ^g,NS ^e,S ^d,S ^d,S ^d ^g,"statistical comparison of dual level fasted with published fasted equilibrium solubility [1]: significantly different; statistical comparison of dual level fed with published fed equilibrium solubility ([1]; current fed arm vs published fed DoE): significantly different; pKa ([3]; no reference given): 8.1; direction of pH effect on solubility (standardized effect) ([5]; fasted and fed study arms, Figure 3): negative effect; direction of cholesterol effect on solubility (standardized effect) ([5]; fasted arm, Figure 3): significant negative solubility effect; statistical significance of DoE factor lecithin on equilibrium solubility [6]: NS ^e; statistical significance of DoE factor monoglyceride on equilibrium solubility [6]: S ^d ^g; statistical significance of DoE factor pH on equilibrium solubility [6]: S ^d ^g; statistical significance of DoE factor sodium oleate on equilibrium solubility [6]: S ^d ^g; variability of equilibrium solubility ([7]; across DoE media, fasted or fed arm, Figures 1 and 2): low solubility variability; significant DoE factors influencing solubility [7]: no significant factors; significant two way factor interactions on solubility ([7]; combined arm): significant interactions"
CN1CC(=O)N2[C@H](c3ccc4c(c3)OCO4)c3[nH]c4ccccc4c3C[C@@H]2C1=O [tadalafil],significant difference,NS ^e,NS ^e ^g,NS ^e,NS ^e,NS ^e,NS ^e,NS ^e ^g,S ^d ^g,S ^d ^g,S ^d ^g,S ^d ^g,NS ^e,NS ^e ^g,NS ^e,NS ^e ^g,NS ^e,NS ^e ^g,NS ^e ^g,S ^d ^g,"statistical comparison of dual level fasted with published fasted equilibrium solubility [1]: significantly different; pKa ([3]; reported): 15; significant DoE factors influencing solubility ([5]; fasted and fed study arms together (14 possible values per drug), significance ±4): no significant factors; statistical significance of DoE factor lecithin on equilibrium solubility [6]: NS ^e; statistical significance of DoE factor monoglyceride on equilibrium solubility [6]: NS ^e; statistical significance of DoE factor pH on equilibrium solubility [6]: NS ^e; statistical significance of DoE factor sodium oleate on equilibrium solubility [6]: S ^d ^g; significance of sodium oleate for solubility ([7]; combined arm, Figure 4, significance ±2, positive solubility impact): significant"
COc1cc(C(=O)NS(=O)(=O)c2ccccc2C)ccc1Cc1cn(C)c2ccc(NC(=O)OC3CCCC3)cc12 [zafirlukast],significant difference,NS ^e,NS ^e ^g,NS ^e,NS ^e,NS ^e,NS ^e ^g,NS ^e,S ^d ^g,S ^d ^g,S ^d,S ^d ^g,NS ^e,NS ^e ^g,S ^d,NS ^e ^g,S ^d,S ^d,NS ^e ^g,S ^d ^g,"pKa ([3]; reported): 4; direction of cholesterol effect on solubility (standardized effect) ([5]; fasted arm, Figure 3): positive effect; direction of monoglyceride effect on solubility (standardized effect) ([5]; fasted arm, Figure 3): negative effect; statistical significance of DoE factor lecithin on equilibrium solubility [6]: NS ^e; statistical significance of DoE factor monoglyceride on equilibrium solubility [6]: NS ^e; statistical significance of DoE factor pH on equilibrium solubility [6]: S ^d ^g; significant DoE factors influencing solubility [7]: no significant factors; significant two way factor interactions on solubility ([7]; combined arm): significant interactions"
